Read-outs that look alike come from different tables or passages of the source.
What was measured:
[1] = tested on: transplanted tumor of human breast cancer cell MDA-MB-231; assay: MDA-MB-231 transplanted tumor in nude mice
Method: (§1) Then cell concentration was adjusted to 1×10^7/ml with matrigel, then each nude mouse was inoculated subcutaneously with 0.2 ml of cells at its right armpit and recorded as the first day of inoculation. When the tumor grows to be greater than or equal to 100 mm^3, the mice were randomly divided into 11 groups with 6 mice in each group: a model group, a cyclophosphamide group, isovaleryl spiramycin I groups with doses of 25, 50 and 100 mg/kg, isovaleryl spiramycin II groups with doses of 25, 50 and 100 mg/kg, and isovaleryl spiramycin III groups with doses of 25, 50 and 100 mg/kg. Each group was continuously administered intragastrically for 30 days with a dose of 20 ml/kg. The mice were sacrificed the next day after drug withdrawal and the indicators were tested. The long diameter and short diameter of the tumor, and the body weight of each mouse were recorded every 3 days from drug administration to nude mouse sacrifice.
(§2) The body weight of the nude mice and the long diameter (a) and short diameter (b) of the transplanted tumor were measured every 3 days, and the tumor volume (v), relative tumor volume (RTV) and relative tumor proliferation rate (T/C) are calculated respectively according to the following formulas, wherein V=a×b^2/2; RTV=V/V0 (V0 is the tumor volume before administration, V is the tumor volume before sacrifice), and T/C (%)=treatment group RTV/model control group RTV×100%.
(§3) Each mouse was weighed and sacrificed. After the tumor was completely stripped off from the body of the mouse, the non-tumor tissues such as blood stains and fat were removed to weigh the tumor and calculate the tumor growth inhibition rate. The average tumor weight of each group of mice is used as an indicator of efficacy. Tumor growth inhibition rate (%)=(1−the average tumor weight of the treatment group/the average tumor weight of the model group)×100%.

[2] = tested on: transplanted tumor of human hepatoma cell HepG-2; assay: HepG-2 transplanted tumor in nude mice; settings: for Tumor Volume (mm3) (d 1): d1
Method: as §1, §2, §3

[3] = tested on: transplanted tumor of human glioblastoma cell A172; settings: for Tumor Volume (mm3) (d 1): d1
In short: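 Nude mice bearing subcutaneous A172 xenografts (cells in matrigel) randomized at ≥100 mm^3, 6 per group; isovaleryl spiramycin I, II or III at 25, 50 or 100 mg/kg given intragastrically for 30 days, temozolomide as comparator. Endpoints: RTV-based T/C (%) and tumor-weight inhibition at sacrifice.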

[4] = Spleen index of A549 lung cancer tumor-bearing mice; settings: n = 6
[5] = MDA-MB-231, 25 mg/kg (low dose) i.g. 30 days
[6] = MDA-MB-231, 50 mg/kg (medium dose) i.g. 30 days
[7] = MDA-MB-231, 100 mg/kg (high dose) i.g. 30 days
[8] = HepG-2, high dose (100 mg/kg in method) i.g. 30 days
[9] = HepG-2, low dose (25 mg/kg in method) i.g. 30 days
[10] = HepG-2, medium dose (50 mg/kg in method) i.g. 30 days
[11] = A172, high dose (100 mg/kg in method) i.g. 30 days
[12] = A172, low dose (25 mg/kg in method) i.g. 30 days
[13] = A172, medium dose (50 mg/kg in method) i.g. 30 days

## CO[C@@H]1[C@@H](O[C@@H]2O[C@H](C)[C@@H](O[C@H]3C[C@@](C)(O)[C@@H](OC(=O)CC(C)C)[C@H](C)O3)[C@H](N(C)C)[C@H]2O)[C@@H](CC=O)C[C@@H](C)[C@@H](O[C@H]2CC[C@H](N(C)C)[C@@H](C)O2)/C=C/C=C/C[C@@H](C)OC(=O)C[C@H]1O [Isovaleryl spiramycin I, isovaleryl spiramycin I]
[1]; [5]
  Inhibition Rate (tumor growth inhibition rate): 22.84%
  Relative Tumor Proliferation Rate (T/C): 69.71%
  Relative Tumor Volume (RTV): 10.89 ± 2.52
  Tumor Volume (d 1): 111.07 ± 8.47 mm3
  Tumor Volume (d 30): 1213.38 ± 299.29 mm3
  Tumor Weight: 1.79 ± 0.34 g
[1]; [6]
  Inhibition Rate (tumor growth inhibition rate): 55.17%
  Relative Tumor Proliferation Rate (T/C): 44.18%
  Relative Tumor Volume (RTV): 6.90 ± 2.43
  Tumor Volume (d 1): 116.00 ± 8.13 mm3
  Tumor Volume (d 30): 807.45 ± 319.26 mm3
  Tumor Weight: 1.04 ± 0.44 g
[1]; [7]
  Inhibition Rate (tumor growth inhibition rate): 69.11%
  Relative Tumor Proliferation Rate (T/C): 27.74%
  Relative Tumor Volume (RTV): 4.33 ± 3.47
  Tumor Volume (d 1): 111.91 ± 10.26 mm3
  Tumor Volume (d 30): 458.55 ± 338.74 mm3
  Tumor Weight: 0.72 ± 0.48 g
[1]; MDA-MB-231, low, medium and high doses, P<0.05
  tumor volume and relative tumor volume compared with the model group: significantly lower
[1]; mouse, in vivo
  mouse weight compared with the model group: no significant changes
[2]; [8]
  Relative Tumor Proliferation Rate (T/C): 27.49%
  tumor growth inhibition rate: 68.22%
[2]; [9]
  Relative Tumor Proliferation Rate (T/C): 65.03%
  tumor growth inhibition rate: 24.43%
[2]; HepG-2, low, medium and high doses, P<0.05
  tumor volume and relative tumor volume compared with the model group: significantly lower
[2]; [10]
  Relative Tumor Proliferation Rate (T/C): 42.12%
  tumor growth inhibition rate: 57.93%
[2]; HepG-2 nude mice, 25 mg/kg
  Inhibition Rate (%): 24.43%
  Relative Tumor Proliferation Rate (T/C): 65.03%
  Relative Tumor Volume (RTV): 10.89 ± 2.67
  Tumor Weight: 1.84 ± 0.23 g
  Tumor Volume (mm3) (d 1): 114.02 ± 11.68 mm3
  Tumor Volume (mm3) (d30): 1248.33 ± 337.59 mm3
[2]; HepG-2 nude mice, 50 mg/kg
  Inhibition Rate (%): 57.93%
  Relative Tumor Proliferation Rate (T/C): 42.12%
  Relative Tumor Volume (RTV): 7.05 ± 3.35
  Tumor Weight: 1.02 ± 0.45 g
  Tumor Volume (mm3) (d 1): 122.31 ± 4.68 mm3
  Tumor Volume (mm3) (d30): 851.37 ± 371.80 mm3
[2]; HepG-2 nude mice, 100 mg/kg
  Inhibition Rate (%): 68.22%
  Relative Tumor Proliferation Rate (T/C): 27.49%
  Relative Tumor Volume (RTV): 4.60 ± 3.39
  Tumor Weight: 0.77 ± 0.44 g
  Tumor Volume (mm3) (d 1): 110.06 ± 9.58 mm3
  Tumor Volume (mm3) (d30): 481.16 ± 326.94 mm3
[2]; mouse, in vivo
  mouse weight compared with the model group: no significant changes
[2]; mouse, in vivo, 25 mg/kg
  Body Weight (g) (d1): 21.36 ± 1.67 g
  Body Weight (g) (d30): 23.24 ± 1.33 g
[2]; mouse, in vivo, 50 mg/kg
  Body Weight (g) (d1): 21.47 ± 1.58 g
  Body Weight (g) (d30): 23.64 ± 1.67 g
[2]; mouse, in vivo, 100 mg/kg
  Body Weight (g) (d1): 21.37 ± 1.36 g
  Body Weight (g) (d30): 22.867 ± 1.57 g
[3]; [11]
  Relative Tumor Proliferation Rate (T/C): 25.16%
  tumor growth inhibition rate: 68.79%
[3]; [12]
  Relative Tumor Proliferation Rate (T/C): 74.49%
  tumor growth inhibition rate: 30.75%
[3]; A172, low, medium and high doses, P<0.05
  tumor volume and relative tumor volume compared with the model group: significantly lower
[3]; [13]
  Relative Tumor Proliferation Rate (T/C): 43.43%
  tumor growth inhibition rate: 44.26%
[3]; A172 nude mice, 12.5 mg/kg
  Inhibition Rate (%): 30.75%
  Relative Tumor Proliferation Rate (T/C): 74.49%
  Relative Tumor Volume (RTV): 12.69 ± 1.08
  Tumor Weight: 0.96 ± 0.08 g
  Tumor Volume (mm3) (d 1): 120.36 ± 10.15 mm3
  Tumor Volume (mm3) (d30): 1519.32 ± 71.53 mm3
[3]; A172 nude mice, 25 mg/kg
  Inhibition Rate (%): 44.26%
  Relative Tumor Proliferation Rate (T/C): 43.43%
  Relative Tumor Volume (RTV): 10.67 ± 1.08
  Tumor Weight: 0.77 ± 0.09 g
  Tumor Volume (mm3) (d 1): 121.90 ± 10.10 mm3
  Tumor Volume (mm3) (d30): 889.01 ± 195.61 mm3
[3]; A172 nude mice, 50 mg/kg
  Inhibition Rate (%): 68.79%
  Relative Tumor Proliferation Rate (T/C): 25.16%
  Relative Tumor Volume (RTV): 10.05 ± 0.71
  Tumor Weight: 0.43 ± 0.07 g
  Tumor Volume (mm3) (d 1): 122.38 ± 6.44 mm3
  Tumor Volume (mm3) (d30): 513.12 ± 89.49 mm3
[3]; mouse, in vivo
  mouse weight compared with the model group: no significant changes
[3]; mouse, in vivo, 12.5 mg/kg
  Body Weight (g) (d1): 21.06 ± 0.43 g
  Body Weight (g) (d30): 20.34 ± 0.17 g
[3]; mouse, in vivo, 25 mg/kg
  Body Weight (g) (d1): 20.98 ± 0.73 g
  Body Weight (g) (d30): 20.93 ± 0.54 g
[3]; mouse, in vivo, 50 mg/kg
  Body Weight (g) (d1): 21.00 ± 0.65 g
  Body Weight (g) (d30): 20.88 ± 0.58 g
[4]; dose 13 mg/kg
  Spleen Index (%): 0.32 ± 0.12%
[4]; dose 26 mg/kg
  Spleen Index (%): 0.38 ± 0.09%
[4]; dose 52 mg/kg
  Spleen Index (%): 0.31 ± 0.08%

From patent publication US20200163984A1, “USE OF ISOVALERYL SPIRAMYCIN I, II AND/OR III IN MANUFACTURING MEDICAMENT FOR TREATING AND/OR PREVENTING TUMOR, AND MEDICAMENT” (SHENYANG FUYANG PHARMACEUTICAL TECHNOLOGY CO., LTD., priority 2017, published 2020)
